Assay results reported in article PMC6474902, “Examination of novel 4-aminoquinoline derivatives designed and synthesized by a hybrid pharmacophore approach to enhance their anticancer activities” (Scientific Reports, 2019).
“Also recorded” adds a separate entry of the source. Like-named read-outs stand apart in the source and are kept apart here.

Legend:
HeLa cells = assay: Sequential treatment with monastrol and compound 13, DNA content; type: cell-based, human; conditions: 100 μM monastrol, 18 h
Protocol: 0 h 2 h post-monastrol 4 h post-monastrol 6 h post-monastrol […]
death. HeLa cells, treated with 100 μM of monastrol for 18 h (defined 0 h), were released into complete medium in the absence (sham) or presence of 10 μM compound 13 (VR23). Note that monastrol arrested cells […]

MCF7 = assay: SRB antiproliferative/antigrowth assay; type: cell-based, human
Protocol: (§1) The antigrowth effects of 4-piperazinylquinoline sulfonyl analogs on human breast tumor cells was initially evaluated using MDA-MB468 (a PTEN defective, EGFR positive breast adenocarcioma), MDA-MB231 (p53 and pRB mutated, triple-negative breast carcinoma), and MCF7 (p53+/−, invasive ductal breast carcinoma) cell lines. In addition, the cytotoxicity of all the compounds was also evaluated with the 184B5 and MCF10A non-cancer immortalized breast epithelial cell lines, to determine if these newly synthesized compounds have differential cytotoxic effects on cancer and non-cancer cells. The panel of three breast cancer cell lines with different genetic back ground and the well-studied two non-cancer immortalized breast cell lines would provide insights into the efficacy and toxicity of the test compounds in the different genetic background and at different stages of tumor development. The dose response of each cell line was established by determining the number of viable cells after 48 h of continuous drug treatment against seven different concentrations (100 µM to 0.0064 µM) of each compound. The reading of sulphorodamine B (SRB) staining is known to accurately reflect the level of total cellular macromolecules/cell growth/proliferation[6],[23]. […] The data for CQ and cisplatin were included as references. […] The differences in the GI50 values may be attributable to such factors as the nature of the sulfonyl group and the halogen substitution on the 7th position of the 4-piperazinylquinoline ring system, and the genetic and biochemical background of the cell lines.
(§2) Antiproliferative/antigrowth effects were determined by a SRB-based protocol[6],[23]. For a typical screening experiment, 5,000–10,000 cells were inoculated into 100 µL medium per well of a 96-well microtiter plate as described previously. Briefly, after the inoculation, the microtiter plate was incubated at 37 °C, 5% CO2, 95% air and 100% relative humidity for 24 h, prior to addition of experimental drugs. Some of the sample wells were fixed with 25 µL of 50% tricholoroacetic acid (TCA) as a control of the cell population for each cell line at the time of drug addition (Tz). An aliquot of the frozen stock was thawed and diluted to a desired final maximum test-concentration with complete medium. Two to ten-fold serial dilutions were made to provide a total of seven drug concentrations (and a control [C]). Following addition of drugs, the culture plate was incubated for additional 48 h. Cells were fixed in situ by slowly adding 25 µL of ice-cold 50% (w/v) TCA (final concentration, 10% TCA), and were then incubated for 60 min at 4 °C. The supernatant was discarded, and the plate was washed five times with tap water, followed by air-dry. 50 µL of SRB solution at 0.4% (w/v) in 1% acetic acid was added to each well, and the plate was incubated for >30 min at room temperature. Unbound SRB was removed by five washes with tap water, followed by air-drying. The cells “stained” with SRB were solubilized with 10 mM trizma base, and the absorbance was read on an automated plate reader at a wavelength of 515–564 nm. The relative growth rate (%) was calculated for each of the compound concentrations according to the following formula: (Ti−Tz)/(C−Tz)×100
(§3) In the formula, time zero (Tz), control growth (C), and OD for different concentration of tested compounds (Ti). The GI50 for each compound was obtained from a non-linear Sigmoidal dose-response (variable slope) curve which is fitted by GraphPad Prism v.4.03 software. Values were calculated for each of these parameters if the level of activity was reached. However, if the effect was not reached or was exceeded, the value for that parameter was expressed as greater or less than the maximum or minimum concentration tested.

MDA-MB231 = assay: SRB antiproliferative/antigrowth assay; type: cell-based, human; conditions: for GI50: Homo sapiens, read-out: GI50 MB231
Protocol: as §1, §2, §3

MDA-MB468 = assay: SRB antiproliferative/antigrowth assay; type: cell-based, human; conditions: Homo sapiens, read-out: GI50 MB468
Protocol: as §1, §2, §3

lysosomal volume = test system: lysosomal volume; set-up: method as in PMID 16137197; conditions: cited from earlier work
MCF10A = assay: SRB antiproliferative/antigrowth assay, non-cancer cells; type: cell-based, human; conditions: Homo sapiens, MCF-10A, read-out: GI50 MCF10A
Protocol: as §1, §2, §3

184B5 = assay: as above; type: cell-based, human; conditions: Homo sapiens, 184B5, 48 h, read-out: GI50 184B5
Protocol: as §1, §2, §3

[1] = test system: MDA-MB231, MDA-MB468, MCF7 breast cancer cells; 184B5 and MCF10A non-cancer breast cells; assay: SRB assay, panel of breast cancer and non-cancer breast cell lines; type: cell-based, human; conditions: judged from GI50 values of Table 1
Protocol: as §1, §2, §3

HeLa = assay: Combination with bortezomib, cell death; type: cell-based, human; conditions: 48 h post-treatment; BTZ 6 nM, compound 13 0.75 µM, alone or combined
[2] = Homo sapiens, MCF7, 48 h, SRB, 48 h post-treatment, mean of triplicates of at least two experiments, read-out: GI50 MCF7
[3] = MDA-MB-231, 48 h, SRB, 48 h post-treatment, mean of triplicates of at least two experiments
[4] = MDA-MB-468, 48 h, SRB, 48 h post-treatment, mean of triplicates of at least two experiments
[5] = 48 h, SRB, 48 h post-treatment, non-cancer breast epithelial cells
[6] = SRB, 48 h post-treatment, non-cancer breast epithelial cells
[7] = Homo sapiens, MCF7, SRB, 48 h post-treatment, mean of triplicates of at least two experiments, read-out: GI50 MCF7
[8] = MDA-MB-231, SRB, 48 h post-treatment, mean of triplicates of at least two experiments
[9] = MDA-MB-468, SRB, 48 h post-treatment, mean of triplicates of at least two experiments

Compound | GI50 (184B5) [µM] | GI50 (MCF7; [2]) [µM] | GI50 (MDA-MB231; [3]) [µM] | GI50 (MDA-MB468; [4]) [µM] | preferential antigrowth effect on cancer versus non-cancer cells (in words) [1] | melting point [°C] | GI50 (MCF10A; [5]) [µM] | GI50 (184B5; [6]) [µM] | also measured
CCOC(=O)C1=C(C)NC(=S)NC1c1cccc(O)c1 (stereo not drawn) [monastrol] |  |  |  |  |  |  |  |  | cell cycle arrest (HeLa cells): arrested cells at G2/M
CCN(CC)CCCC(C)Nc1ccnc2cc(Cl)ccc12 (stereo not drawn) [Chloroquine, reference compound] | 76.1 ± 1.1 |  |  |  |  |  |  |  | GI50 (MCF7; Homo sapiens, MCF7, 48 h, read-out: GI50 MCF7, SRB, 48 h post-treatment, mean of triplicates of at least two experiments): 38.4 µM; GI50 (MCF7; read-out: GI50 MCF7, SRB, 48 h post-treatment, mean of triplicates of at least two experiments): 38.4 ± 1.2 µM; GI50 (MDA-MB231; MDA-MB-231, 48 h): 22.5 ± 1.4 µM; GI50 (MDA-MB468; MDA-MB-468, 48 h): 28.6 ± 1.3 µM; lysosomal volume (lysosomal volume): causes an increase in lysosomal volume; GI50 (MCF10A; 48 h): 81.3 ± 1.3 µM
COC(=O)c1sccc1S(=O)(=O)NCCCNc1ccnc2cc(C(F)(F)F)ccc12 [Compound 42, 3-[3-(7-Trifluoromethyl-quinolin-4-ylamino)-propylsulfamoyl]-thiophene-2-carboxylic acid methyl ester] |  | 4.3 ± 0.2 | 7.5 ± 0.6 | 4.6 ± 0.2 | effective and preferential antigrowth effects on cancer cells; also recorded: stronger antigrowth/antiproliferation activity against cancer cells than non-cancer cells | 137 to 139 | 14.4 ± 0.8 | 12.1 ± 0.5 | 
O=[N+]([O-])c1ccc(S(=O)(=O)NCCCNc2ccnc3cc(C(F)(F)F)ccc23)c([N+](=O)[O-])c1 [Compound 40, 2,4-Dinitro-N-[3-(7-trifluoromethyl-quinolin-4-ylamino)-propyl]-benzenesulfonamide] | 15.9 ± 0.9 |  |  |  | effective and preferential antigrowth effects on cancer cells; also recorded: stronger antigrowth/antiproliferation activity against cancer cells than non-cancer cells | 198 to 200 |  |  | GI50 (MCF7; [7]): 5.6 ± 0.3 µM; increase in antigrowth activity against MDA-MB231 compared to mono nitro substituted compounds (30 and 39) (MDA-MB231): 1.7–2.3 fold; GI50 (MDA-MB231; [8]): 8.9 ± 0.8 µM; GI50 (MDA-MB468; [9]): 8.5 ± 0.4 µM; GI50 (MCF10A; [6]): 22.3 ± 0.8 µM
O=[N+]([O-])c1ccc(S(=O)(=O)N2CCN(c3ccnc4cc(C(F)(F)F)ccc34)CC2)c([N+](=O)[O-])c1 [Compound 22, 4-[4-(2,4-Dinitro-benzenesulfonyl)-piperazin-1-yl]-7-trifluoromethyl-quinoline] | 37.8 ± 0.4 |  |  |  | effective and preferential antigrowth effects on cancer cells; also recorded: stronger antigrowth/antiproliferation activity against cancer cells than non-cancer cells | 178 to 180 |  |  | GI50 (MCF7; [7]): 10.8 ± 0.1 µM; GI50 (MDA-MB231; [8]): 24.3 ± 0.6 µM; GI50 (MDA-MB468; [9]): 19.2 ± 0.6 µM; GI50 (MCF10A; [6]): 35.4 ± 0.5 µM
CC(C)C[C@H](NC(=O)[C@H](Cc1ccccc1)NC(=O)c1cnccn1)B(O)O [Bortezomib, bortezomib, reference compound] |  |  |  |  |  |  |  |  | cell death (HeLa): neither 6 nM BTZ nor 0.75 µM of compound 13 resulted in substantial HeLa cell death
O=[N+]([O-])c1cccc(S(=O)(=O)N2CCN(c3ccnc4cc(C(F)(F)F)ccc34)CC2)c1 [Compound 21, 4-[4-(3-Nitro-benzenesulfonyl)-piperazin-1-yl]-7-trifluoromethyl-quinoline] |  | 9.4 ± 0.3 | 32.2 ± 0.6 | 18.6 ± 0.6 | effective and preferential antigrowth effects on cancer cells; also recorded: stronger antigrowth/antiproliferation activity against cancer cells than non-cancer cells | 199 to 201 | 15.4 ± 0.1 | 17.7 ± 0.2 | 
CN(C)c1cccc2c(S(=O)(=O)N3CCN(c4ccnc5cc(Cl)ccc45)CC3)cccc12 [Compound 14, 5-(4-(7-Chloroquinolin-4-yl)piperazin-1-ylsulfonyl)-N,N-dimethylnaphthalen-1-amine] |  | 22.3 ± 0.2 | 35 ± 0.8 | 27.5 ± 0.7 | effective and preferential antigrowth effects on cancer cells; also recorded: stronger antigrowth/antiproliferation activity against cancer cells than non-cancer cells | 145 to 147 | 32.2 ± 0.3 | 28.3 ± 0.3 | 
